These results are taken from patent publication US6936619B2, “Quinazolinone compounds useful in therapy” (Pfizer, Inc., priority 2002, dated 2005).

This test has as its target T1, α1L Receptor (Oryctolagus cuniculus, UniProt O02824).
T1 construct: A single rabbit aorta was cleaned of connective tissue, cut into rings; from tissue; host or cells: rabbit aorta rings
T1 sequence (O02824 1-466): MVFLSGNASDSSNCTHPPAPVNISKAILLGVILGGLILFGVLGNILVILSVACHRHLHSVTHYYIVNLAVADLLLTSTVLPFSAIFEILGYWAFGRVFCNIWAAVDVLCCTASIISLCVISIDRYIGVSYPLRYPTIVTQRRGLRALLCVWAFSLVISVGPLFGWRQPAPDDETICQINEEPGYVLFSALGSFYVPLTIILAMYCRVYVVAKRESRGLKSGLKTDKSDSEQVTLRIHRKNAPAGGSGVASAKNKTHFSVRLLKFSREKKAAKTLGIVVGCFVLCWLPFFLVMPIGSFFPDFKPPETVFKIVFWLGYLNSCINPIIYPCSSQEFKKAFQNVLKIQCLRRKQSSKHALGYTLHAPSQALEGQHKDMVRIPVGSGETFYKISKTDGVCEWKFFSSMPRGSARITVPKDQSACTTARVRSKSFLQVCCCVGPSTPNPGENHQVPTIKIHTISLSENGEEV
Briefly: Contractile responses of rabbit aorta (methoxamine-induced), antagonist pA2. Particulars: rabbit aorta rings, methoxamine as agonist, 60 minutes with compound, Schild analysis; read-out: pA2 v α1L (converted). The protocol:
Contractile Responses of Rabbit Aorta (α1L Receptor)
A single rabbit aorta was cleaned of connective tissue, cut into rings ˜3 mm in length, then denuded of […] by rubbing very gently with a probe. The lengths of tissue are then mounted in the 5 mL organ baths, which contain the modified Krebs of the following composition (mM): NaCl (119), KCl (4.7), CaCl2 (2.5), KH2PO4 (1.2), MgSO4 (1.2), NaHCO3 (25), glucose (11), and gassed with 95% O2/5% CO2. The tissues are placed under ˜1.5 g tension, and are left to equilibrate for ˜60 minutes on a pump speed of ˜5 mL\minute, adjusting the tension to 1-1.5 g if necessary after 15 and 45 minutes. A 1M stock solution (1×10^−3M bath conc.) of methoxamine in water was made and 1:10 dilutions made using the same diluent. A sensitising dose of 120 mM KCl (bath concentration) was added to each bath. After the maximum response had been reached (usually about 6-8 minutes), the tissues are washed with Krebs solution for 60 minutes, pump speed at ˜2.97 mL/min. […]
The data was captured on ADA analysis in-vitro software, which expresses the readings as a % of the maximum response of the control curve, draws control and test compound dose response curves, and calculates a EC50 and then dose ratio (DR), the ratio between control and treatment curve EC50, for each treatment. […]

For `COc1cc(C2CC2)c2c(=O)[nH]c(N3CCc4nc(CN5CCOCC5)ccc4C3)nc2c1` [Example 11, 5-Cyclopropyl-7-methoxy-2-(2-morpholin-4-ylmethyl-7,8-dihydro[1,6]-naphthyridin-6(5H)-yl)-4(3H)-quinazolinone], the Kb was 0.1 nM.
